pIC50: −log10 of the molar value. Read-outs that look alike come from different tables or passages of the source.
How the values were obtained:
Assay type in all cases: cell-based
[1] = test system: N-Luc (Namalwa cells stably transfected with the Luciferase gene); experiment: In vitro cytotoxicity assay (WST-8 cell viability, 5 days); conditions: Homo sapiens
Protocol: (§1) Cytotoxic potencies were assessed in flat-bottomed 96 well plates (Costar) using a water-soluble tetrazonium salt (WST-8) based cell viability assay (Dojindo, Molecular Technologies, Inc.) as previously described (Kovtun Y V, et al. Antibody-maytansinoid conjugates designed to bypass multidrug resistance. Cancer Res 2010; 70(6):2528-37). Briefly, human tumor cells (1,000-5,000 cells/well, depending on the cell line), in the appropriate culture medium were incubated, with conjugates in the presence or absence of an excess of the corresponding unconjugated antibodies, or with the metabolites for 5 days, at 37° C., 6% CO2. Cell viability was determined from background-corrected WST-8 absorbance.

HSC-2 = experiment: as above; conditions: Homo sapiens
Protocol: as §1

MDA-MB-468 = experiment: as above; conditions: Homo sapiens, MDA-MB-468, read-out: In vitro cytotoxicity (IC50) MDA-MB-468
Protocol: as §1

SUDHL-1 = experiment: as above; conditions: Homo sapiens, SU-DHL-1, read-out: In vitro cytotoxicity (IC50) SUDHL-1
Protocol: as §1

Namalwa = experiment: as above; conditions: Homo sapiens, read-out: In vitro cytotoxicity (IC50) Namalwa
Protocol: as §1

KB = experiment: cells; conditions: Homo sapiens, read-out: In vitro cytotoxicity (IC50) KB
Protocol: as §1

[2] = read-out: In vitro cytotoxicity (IC50) N-Luc, non-conjugated compounds, Table 7A
[3] = HSC-2, read-out: In vitro cytotoxicity (IC50) HSC-2, non-conjugated compounds, Table 7A
[4] = read-out: In vitro cytotoxicity (IC50) N-Luc, non-conjugated compounds, Table 7B
[5] = HSC-2, read-out: In vitro cytotoxicity (IC50) HSC-2, non-conjugated compounds, Table 7B
[6] = HSC-2, read-out: In vitro cytotoxicity (IC50) HSC-2

SMILES | pIC50 [1, 2] | pIC50 (HSC-2; [3]) | pIC50 (MDA-MB-468) | pIC50 (SUDHL-1) | pIC50 [1, 4] | pIC50 (Namalwa) | pIC50 (HSC-2; [5]) | pIC50 (KB) | pIC50 (HSC-2; [6])
CC[C@@]1(O)C(=O)OCc2c1cc1n(c2=O)Cc2c-1nc1cc(F)c(SC)cc1c2CNC(=O)CO [Compound 7b] | 8.70 | 8.15 | – | – | – | – | – | – | –
CC[C@@]1(O)C(=O)OCc2c1cc1n(c2=O)Cc2c-1nc1cc(F)c(C)cc1c2CN(Cc1ccccc1)C(=O)CO [Compound 7c] | 9.15 | 9.00 | 9.00 | 9.70 | – | – | – | – | –
CC[C@@]1(O)C(=O)OCc2c1cc1n(c2=O)Cc2c-1nc1cc(F)c(C)cc1c2CCCCO [Compound 8a] | 9.05 | 9.22 | 8.70 | – | 9.70 | 9.70 | 9.30 | 9.22 | –
CC[C@@]1(O)C(=O)OCc2c1cc1n(c2=O)Cc2c-1nc1cc(F)c(C)cc1c2CCCCSC [Compound 33a] | – | 8.70 | – | – | – | 9.15 | – | – | –
CC[C@@]1(O)C(=O)OCc2c1cc1n(c2=O)Cc2c-1nc1cc(F)c(C)cc1c2CS(=O)(=O)CCO [Compound 34b] | – | 8.52 | 8.52 | – | – | – | – | 8.70 | –
CC[C@@]1(O)C(=O)OCc2c1cc1n(c2=O)Cc2c-1nc1cc(F)c(C)cc1c2CNC(=O)CO [Compound 7a] | 9.00 | 8.40 | 8.52 | 9.30 | 9.05 | 9.05 | – | – | 8.70
CC[C@@]1(O)C(=O)OCc2c1cc1n(c2=O)Cc2c-1nc1cc(F)c(C)cc1c2CCl [Compound 4a] | – | 8.40 | – | – | – | 8.52 | – | – | –
CC[C@@]1(O)C(=O)OCc2c1cc1n(c2=O)Cc2c-1nc1cc(F)c(C)cc1c2CNC(=O)CCCCCSC [Compound 35a] | – | 8.15 | – | 9.22 | – | – | – | – | –
CC[C@@]1(O)C(=O)OCc2c1cc1n(c2=O)Cc2c-1nc1cc(F)c(C)cc1c2CSCCO [Compound 8c] | – | – | – | – | 9.70 | – | – | – | 9.40
CC[C@@]1(O)C(=O)OCc2c1cc1n(c2=O)Cc2c-1nc1cc(F)c(C)cc1c2CSCCSC [Compound 8p] | – | – | – | – | 9.70 | – | 9.22 | – | –
CC[C@@]1(O)C(=O)OCc2c1cc1n(c2=O)Cc2c-1nc1cc(F)c(SC)cc1c2CCl [Compound 4b] | – | 8.52 | – | – | – | 9.00 | – | – | –
CC[C@@]1(O)C(=O)OCc2c1cc1n(c2=O)Cc2c-1nc1cc(F)c(C)cc1c2C[S+]([O-])CCO (some centres unmarked) [Compound 34a] | – | 8.05 | 8.15 | – | – | – | – | 8.15 | –
